Results on two molecules are retold here after US6635802B1, “Nuclear transfer using cells cultured in serum starvation media containing apoptosis inhibitors” (The Texas A&M University System, priority 2000, dated 2003).

One test has as its system porcine PGCs. Put plainly: In vitro culture of porcine PGCs on STO feeder cells with apoptosis inhibitors; AP-stained colonies counted. Conditions: for Effect of timing of exposure on number of colonies, in words: all 8 days vs first 4 days vs last 4 days. In kind it is cell-based. An excerpt:
Porcine fetuses were collected from hysterectomized uteri of four-way crossbred gilts (DeKalb, Ill.) between day 25 and 30 of pregnancy (estrus=day 0). Fetuses were washed in phosphate buffered saline supplemented with BSA (0.4%, Sigma St. Louis, Mo.) and penicillin/streptomycin (1%, Gibco BRL, Rockville, Md.) (PBS/BSA/PS). Urogenital ridges, appeared as longitudinal protrusions along the medial mesonephric surface, were isolated and washed in PBS/BSA/PS followed by several washes in PES medium before PGC collection. The PES medium was comprised of 50:50 mixture of Dulbecco's modified Eagle's medium (DMEM) and Ham's F10 medium supplemented with 15% fetal bovine serum (FBS), L-glutamine (2 mM), β-mercaptoethanol (0.1 mM), MEM non-essential amino acids (1%) and penicillin/streptomycin (1%). All media and supplements were purchased from Gibco BRL.
PGCs were isolated by incubation in 0.25% trypsin/1 mM EDTA solution (Gibco BRL) followed by gentle pipetting or by mechanical dissociation of ridges into small fragments followed by gentle pipetting. After tissue disruption, cells were centrifuged for 5 minutes at 250 rpm to remove tissue debris and clumps. The supernatant containing most the single cells was collected and centrifuged at 1000 rpm for 10 minutes.
PGCs were resuspended with PES medium containing cytokines, such as soluble recombinant human stem cell factor (SCF; 40 ng/ml), human basic fibroblast growth factor (bFGF; 20 ng/ml), and human leukemia inhibitory factor (LIF; 20 ng/ml). All cytokines were obtained from R&D Systems (Minneapolis, Minn.). Cell suspensions were plated on irradiated mouse STO feeder cells (3×10^6 cells per 35 mm well), prepared as previously described (Piedrahita et al., 1998) and cultured in humidified environment of 5% CO2 in air, 38° C. PGC-derived colonies with ES-like morphology after 7-10 days of culture are passaged to fresh feeders for establishment of cell lines. PGC-derived colonies were dissociated with 0.25% trypsin/1 mM EDTA (Gibco BRL) for 10 minutes. […] To identify PGC-derived cells and the state of differentiation were determined by morphology and by expression of alkaline phosphatase (AP).
AP activity was determined as described previously (Moore and Piedrahita, 1997). Briefly, culture plates were rinsed twice in PBS and fixed in 4% formaldehyde in PBS for 15 minutes at room temperature. Fixed cells were washed twice with PBS and stained in naphtol AS-MX phosphate (200 μg/ml; Sigma) and Fast Red TR salt (1 mg/ml; Sigma) in 100 mM Tris buffer, pH 8.2 for 30 minutes at room temperature. Staining was terminated by washing cultures in PBS. Specificity of AP activity was determined by staining in the presence of the AP inhibitor, tetramisole (500 μM; Sigma). Mouse ES cells also were stained as control for AP activity.
To determine the effect of apoptosis inhibitors on survival of porcine PGCs in vitro, freshly isolated PGCs were cultured as described above with or without apoptosis inhibitors, α2-macroglobulin (MAC: broad range protease inhibitor, 1.4 pM) and N-acetylcysteine (NAC: antioxidant, 1 mM). After 7-10 days of culture, colonies were stained for AP activity and counted. Studies were performed at least three replicates. The data were normalized to the treatment with no inhibitors added (control) and tested for homogeneity of variance and analyzed by ANOVA. Mean separation is accomplished by Fisher's protected LSD using software SuperANOVA (Abacus Concepts).
Dose titration of MAC (0.35, 0.7, 1.4, and 2.8 pM) and NAC (0.25, 0.5, 1.0, and 2.0 mM), to determine the optimal concentration of inhibitors, were performed.

Test [1] deals with Porcine embryonic fibroblast (PEF). Nature of the test: TUNEL assay (flow cytometry) of serum starved porcine embryonic fibroblasts. In kind it is cell-based. The conditions noted are these: serum starvation 5 days, MAC 0.7 pM, NAC 1 mM, GSH 2 mM, serum starved without inhibitor 26.50. An excerpt:
Porcine embryonic fibroblast (PEF) were isolated from day 25-28 fetuses according to the methods previously described (Hogan et al., 1994). Briefly, porcine fetuses of day 25-30 (day 0=estrus) were removed from the uterus and rinsed with PBS+penicillin/streptomycin solution (PBS/PS). Head, limbs and internal organs were removed, and the carcasses were minced with razor blades or ground using a syringe head until they were the consistency of sludge. Then these were trypsinized 2-3 times using 0.25% trypsin+EDTA for 20 minutes. The supernatant fraction was removed and centrifuged to collect the cells. The cells were plated using DMEM+10% fetal bovine serum (FBS) and cultured up to 80-90% confluency before further passage.
Bovine embryonic fibroblasts (BEF) were isolated from the fetus with 3-5 cm crown-rump length. After two or three passages, cells were plated one million cells per plate (100 mm) with growth medium (DMEM) with 2 mM L-glutamine, 0.1 mM β-mercaptoethanol and 10% FBS. After 24 hours, cells were washed with PBS 3-5 times and then serum starvation medium with 0.5% FBS was added. In addition, cells were treated with serum starvation medium containing apoptosis inhibitors such as a2-macroglobulin (0.7 pM), N-acetylcysteine (1 mM) and glutathione (2 mM). Cells were treated with serum starvation with or without apoptosis inhibitors for 5 or 10 days. Then cells were trypsinized and counted.
After counting, cells were fixed and stained according to protocols with the APO-BRDU kit (Phoenix Flow Systems, San Diego, Calif.). […] To determine base line fluorescence, control cells were incubated without TdT. […] Following counterstaining with a propidium iodide/RNase A solution for 30 minutes in the dark, which allows simultaneous analysis of cell cycle position and apoptosis, cells were analyzed on a FACSCalibur™ flow cytometer (Becton Dickinson, San Jose, Calif.). Fluorescence emissions were measured at 582±21 nm for propidium iodide and 530±15 nm for fluorescein, without spectral compensation, after excitation at 488 nm by an argon-ion laser. […]
A general note: A flow cytometer gives signals particle by particle.

`CC(=O)N[C@@H](CS)C(=O)O` [NAC, N-acetylcysteine]: the “Normalized # of Colonies + SE” value is 1.23 ± 0.14 in the test with porcine PGCs (0.25 mM NAC, normalized to control, Table 2 dose response); 1.75 ± 0.13 in the test with porcine PGCs (0.5 mM NAC, normalized to control, Table 2 dose response); 2.07 ± 0.19 in the test with porcine PGCs (1.0 mM NAC, normalized to control, Table 2 dose response); 2.21 ± 0.04 in the test with porcine PGCs (2.0 mM NAC, normalized to control, Table 2 dose response); 2.86 ± 0.55 in the test on porcine PGCs (NAC (1.0 mM) 1-4 days (FH), Table 5 timing study); 1.01 ± 0.035 with porcine PGCs (NAC (1.0 mM) 5-8 days (LH), Table 5 timing study). Also, the “Normalized # of Colonies + SE” value in the test on porcine PGCs (NAC (1.0 mM) all 8 days, Table 5 timing study) stood at 2.64 ± 0.49; in the test with porcine PGCs (Table 7 antioxidants: NAC 1.0 mM, BHA 0.1 mM, BPN 1.0 mM, CIM 2.0 mM, normalized to control), 1.93 ± 0.10. In addition, in the test with porcine PGCs, the “Effect of timing of exposure on number of colonies, in words” value was “Addition at later days has little effect”. The “Concentration of maximal response (number of colonies) over the doses studied” value in the test on porcine PGCs (doses 0.25-2.0 mM studied) stood at 2.0 mM. Besides, the “5-day Apoptosis (%)” value in test [1] is 0.06%.

B1: α2-macroglobulin (protein, UniProt P01023 24-1474, looked up)
Alpha-2-macroglobulin: SVSGKPQYMVLVPSLLHTETTEKGCVLLSYLNETVTVSASLESVRGNRSLFTDLEAENDVLHCVAFAVPKSSSNEEVMFLTVQVKGPTQEFKKRTTVMVKNEDSLVFVQTDKSIYKPGQTVKFRVVSMDENFHPLNELIPLVYIQDPKGNRIAQWQSFQLEGGLKQFSFPLSSEPFQGSYKVVVQKKSGGRTEHPFTVEEFVLPKFEVQVTVPKIITILEEEMNVSVCGLYTYGKPVPGHVTVSICRKYSDASDCHGEDSQAFCEKFSGQLNSHGCFYQQVKTKVFQLKRKEYEMKLHTEAQIQEEGTVVELTGRQSSEITRTITKLSFVKVDSHFRQGIPFFGQVRLVDGKGVPIPNKVIFIRGNEANYYSNATTDEHGLVQFSINTTNVMGTSLTVRVNYKDRSPCYGYQWVSEEHEEAHHTAYLVFSPSKSFVHLEPMSHELPCGHTQTVQAHYILNGGTLLGLKKLSFYYLIMAKGGIVRTGTHGLLVKQEDMKGHFSISIPVKSDIAPVARLLIYAVLPTGDVIGDSAKYDVENCLANKVDLSFSPSQSLPASHAHLRVTAAPQSVCALRAVDQSVLLMKPDAELSASSVYNLLPEKDLTGFPGPLNDQDNEDCINRHNVYINGITYTPVSSTNEKDMYSFLEDMGLKAFTNSKIRKPKMCPQLQQYEMHGPEGLRVGFYESDVMGRGHARLVHVEEPHTETVRKYFPETWIWDLVVVNSAGVAEVGVTVPDTITEWKAGAFCLSEDAGLGISSTASLRAFQPFFVELTMPYSVIRGEAFTLKATVLNYLPKCIRVSVQLEASPAFLAVPVEKEQAPHCICANGRQTVSWAVTPKSLGNVNFTVSAEALESQELCGTEVPSVPEHGRKDTVIKPLLVEPEGLEKETTFNSLLCPSGGEVSEELSLKLPPNVVEESARASVSVLGDILGSAMQNTQNLLQMPYGCGEQNMVLFAPNIYVLDYLNETQQLTPEIKSKAIGYLNTGYQRQLNYKHYDGSYSTFGERYGRNQGNTWLTAFVLKTFAQARAYIFIDEAHITQALIWLSQRQKDNGCFRSSGSLLNNAIKGGVEDEVTLSAYITIALLEIPLTVTHPVVRNALFCLESAWKTAQEGDHGSHVYTKALLAYAFALAGNQDKRKEVLKSLNEEAVKKDNSVHWERPQKPKAPVGHFYEPQAPSAEVEMTSYVLLAYLTAQPAPTSEDLTSATNIVKWITKQQNAQGGFSSTQDTVVALHALSKYGAATFTRTGKAAQVTIQSSGTFSSKFQVDNNNRLLLQQVSLPELPGEYSMKVTGEGCVYLQTSLKYNILPEKEEFPFALGVQTLPQTCDEPKAHTSFQISLSVSYTGSRSASNMAIVDVKMVSGFIPLKPTVKMLERSNHVSRTEVSSNHVLIYLDKVSNQTLSLFFTVLQDVPVRDLKPAIVKVYDYYETDEFAIAEYNAPCSKDLGNA
For the molecule B1, the “Normalized # of Colonies + SE” value in the test on porcine PGCs (0.35 pM MAC, normalized to control without inhibitor, Table 1 dose response) is listed as 1.43 ± 0.03; in the test with porcine PGCs (0.7 pM MAC, normalized to control, Table 1 dose response) it was 1.90 ± 0.08; with porcine PGCs (1.40 pM MAC, normalized to control, Table 1 dose response), 1.50 ± 0.01; with porcine PGCs (2.8 pM MAC, normalized to control, Table 1 dose response), 1.16 ± 0.06; in the test on porcine PGCs (MAC (0.7 pM) all 8 days, Table 4 timing study) it was 1.64 ± 0.08. Besides, the “Number of first passage colonies, in words” value in the test with porcine PGCs (added to the culture media) was “increased the number of first passage colonies”. Besides, the “Effect of timing of exposure on number of colonies, in words” value in the test on porcine PGCs is “maximal effects result when MAC is present throughout the incubation period”. In the test on porcine PGCs (doses 0.35-2.8 pM studied), the “Concentration of maximal response (number of colonies)” value is given as 0.7 pM. Besides, the “Effect upon second passage, in words” value in the test on porcine PGCs (independent of previous culture in the presence of the molecule) is recorded as “protective effect”. Further, the “Effect on the number of PGCs, in words” value with porcine PGCs (single concentrations of Tables 6 and 7) was “induced the most, and significantly, positive effect”. In addition, in test [1], the “5-day Apoptosis (%)” value is 11.60%.
